# Source: patent US12653800B2, “Small molecule inhibitors of TLR2 signaling” (University of Maryland, Baltimore, priority 2015, dated 2026)
# Tests used:
# Assay type in all cases: cell-based
# [1] = biological target: TLR2/1 (Homo sapiens, UniProt O60603); assay: IL-1β mRNA in THP-1 cells stimulated with TLR2/1 agonists (P3C, S. aureus LTA); parameters: expressed in transfected cells; details: C29 50, 100 or 200 μM
# [2] = biological target: T1, mTLR2/6 (Mus musculus, UniProt Q9QUN7); assay: NF-κβ (ELAM)-luciferase reporter assay in HEK293T cells transfected with murine TLR2 and TLR6, P2C; details: HEK293T transfected with murine TLR2 and TLR6, C29 50 μM, P2C 50 ng/mL 5 hrs
# T1 construct: expressed in transfected cells; host or cells: HEK293T, transient transfection; plasmids from Dr. Vladimir Toshchakov
# Method: FIG. 9. C29 is species-specific and blocks human TLR2/6 signaling, but not murine TLR2/6 signaling. (A-D) HEK293T cells were transiently transfected with reporter constructs for ELAM-luciferase, Renilla-luciferase, and pcDNA3.1 in combination with/without pcDNA3-YFP-hTLR2, pFLAG-CMV1-hTLR1, pcDNA3-CFP-hTLR6, pcDNA3.1-mTLR2-CFP, pcDNA3.1-mTLR1-YFP, or pcDNA3.1-mTLR6-CFP. Cells were pretreated for 1 hr with media, vehicle (65 μM NaOH), or C29 (50 μM) and then treated with P3C or P2C (50 ng/mL) for 5 hrs in the presence of media, vehicle, or C29. Lysates were prepared and the dual-luciferase assay performed. Panels A and B represent the mean±SEM from 3 independent experiments and panels C and D represent the mean±SEM from 2 independent experiments each carried out in duplicate (*, p≤0.05; **, p≤0.01).
# HEK293T cells were cultured and plated overnight in 12-well tissue culture plates (2×10^5 cells/well). Transfection mixtures consisted of pcDNA3-YFP-hTLR2 or pcDNA3.1 control vector (1 μg/well each), pELAM (NF-κB)-luciferase (0.2 μg/well), and pRL-TK-Renilla luciferase (0.05 μg/well). […] Cells were lysed in a passive lysis buffer (Promega, Madison, WI) and firefly luciferase and Renilla luciferase activities were measured using the dual luciferase reporter assay system (Promega, Madison, WI). […]
# [3] = system: MAPK and NF-κβ activation; assay: Western analysis of MAPK and NF-κβ activation in murine peritoneal macrophages; details: C29 50 μM, P3C 50 ng/mL
# Method: FIG. 2. C29 inhibits ligand-induced interaction of TLR2 with MyD88 and blocks MAPK and NF-κβ activation. (A) THP-1 cells were cultured in the presence of PMA (20 ng/mL) for 24 hrs and washed twice in media. THP-1 human monocytes were pretreated with media, vehicle (195 μM NaOH), or C29 (150 μM) for 1 hr and treated with P3C (50 ng/mL) in the presence of media, vehicle, or C29 for 15 or 30 min. Co-immunoprecipitation (IP) was carried out using anti-MyD88 antibody and Western analysis (IB) using whole cell lysates. (B) Densitometry analysis (mean±SEM) of 3 independent experiments as shown in (A). (C) Murine peritoneal macrophages were pretreated for 1 hr with media, vehicle (65 μM NaOH), or C29 (50 μM) and treated with P3C (50 ng/mL) for 5-30 min in the presence of media, vehicle, or C29. IB was performed using whole cell lysates and antibodies directed against the signaling intermediates indicated. β-actin was probed as a loading protein. Panel A is representative of 3 independent experiments and panel B is the mean±SEM from 3 independent experiments (*, p≤0.05). Panel B is representative of 2 independent experiments.
# Cells were treated and washed once with 1×PBS and lysed using buffer containing 20 mM HEPES (pH 7.4), 150 mM NaCl, 1 mM EDTA, 1 mM EGTA (pH 8.0), 50 mM NaF, 0.5% Triton X-100, 1 mM Na3VO4, 1 mM DTT, 1 mM PMSF, and protease inhibitor (Roche Applied Science, Indianapolis, IN). Cells were harvested and protein was quantified using BCA Protein assay reagents (Thermo Scientific/Pierce, Rockford, IL). Whole cell lysates (500 μg/500 μL) were precleared using 10 μL of pre-washed Protein G Agarose (Roche Applied Science, Indianapolis, IN) for 2 hours at 4° C. with rotation. Precleared samples were incubated with the respective antibody and rotated overnight at 4° C. Pre-washed Protein G (40 μL) was added to each sample and rotated for 4 h at 4° C. Beads were washed three times in lysis buffer (without protease inhibitor) and finally in complete lysis buffer. Beads were resuspended in 2× Laemmli Sample Buffer and boiled for 10 min. […]
# TLR2/1, sequence (O60603 21-784): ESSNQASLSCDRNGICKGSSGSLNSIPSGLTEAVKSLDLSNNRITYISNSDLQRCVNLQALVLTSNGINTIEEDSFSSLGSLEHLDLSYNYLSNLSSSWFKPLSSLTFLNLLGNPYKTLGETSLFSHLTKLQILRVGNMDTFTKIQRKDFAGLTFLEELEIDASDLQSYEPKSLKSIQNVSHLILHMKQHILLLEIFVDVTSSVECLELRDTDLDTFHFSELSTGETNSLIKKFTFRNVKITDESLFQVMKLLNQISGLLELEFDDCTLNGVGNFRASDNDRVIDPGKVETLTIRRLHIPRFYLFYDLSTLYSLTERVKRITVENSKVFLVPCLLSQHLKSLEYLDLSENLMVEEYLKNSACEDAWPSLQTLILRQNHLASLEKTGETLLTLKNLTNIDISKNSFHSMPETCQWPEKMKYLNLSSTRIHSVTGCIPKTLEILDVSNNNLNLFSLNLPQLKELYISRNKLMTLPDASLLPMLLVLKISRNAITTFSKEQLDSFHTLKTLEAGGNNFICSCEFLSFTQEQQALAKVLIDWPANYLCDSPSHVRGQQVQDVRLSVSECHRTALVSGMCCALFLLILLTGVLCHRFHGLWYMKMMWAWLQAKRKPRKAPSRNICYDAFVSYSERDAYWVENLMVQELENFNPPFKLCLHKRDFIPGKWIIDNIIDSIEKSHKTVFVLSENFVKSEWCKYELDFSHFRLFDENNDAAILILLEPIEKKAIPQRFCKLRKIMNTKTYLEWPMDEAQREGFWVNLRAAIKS
# T1 sequence (Q9QUN7 25-784): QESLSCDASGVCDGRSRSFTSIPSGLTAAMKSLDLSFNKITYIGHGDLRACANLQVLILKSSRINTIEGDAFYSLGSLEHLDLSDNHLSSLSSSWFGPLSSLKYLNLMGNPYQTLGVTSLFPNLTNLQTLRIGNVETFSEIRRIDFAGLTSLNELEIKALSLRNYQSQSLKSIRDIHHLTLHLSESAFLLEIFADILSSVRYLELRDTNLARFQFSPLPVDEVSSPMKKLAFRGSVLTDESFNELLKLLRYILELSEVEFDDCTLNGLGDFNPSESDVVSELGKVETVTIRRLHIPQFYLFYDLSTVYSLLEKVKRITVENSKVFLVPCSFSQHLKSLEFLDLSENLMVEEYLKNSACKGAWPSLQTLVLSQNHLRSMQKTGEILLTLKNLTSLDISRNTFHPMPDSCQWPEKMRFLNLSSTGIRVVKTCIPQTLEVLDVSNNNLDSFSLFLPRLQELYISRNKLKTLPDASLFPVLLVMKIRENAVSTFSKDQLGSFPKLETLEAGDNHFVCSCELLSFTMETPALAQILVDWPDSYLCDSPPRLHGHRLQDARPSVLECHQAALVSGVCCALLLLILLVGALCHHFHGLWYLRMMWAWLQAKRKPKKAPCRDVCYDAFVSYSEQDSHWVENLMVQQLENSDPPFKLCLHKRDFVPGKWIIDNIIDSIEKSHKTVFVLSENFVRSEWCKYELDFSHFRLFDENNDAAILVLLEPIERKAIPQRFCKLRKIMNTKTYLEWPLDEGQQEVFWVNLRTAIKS
smiles,measurement,setting,value
COc1cccc(/C=N/c2cccc(C(=O)O)c2C)c1O [Compound C29],P3C-induced IL-1β gene expression,"[1]; P3C 50 ng/mL, 1 h and 4 h",inhibited P3C- and P2C-induced IL-1β gene expression significantly
same,LTA SA-induced IL-1β mRNA,[1]; S. aureus LTA 1 μg/mL 4 hrs,blocked zymosan- and LTA SA-induced IL-1β mRNA dose-dependently
same,mTLR2/6-induced NF-κβ-luciferase activity,[2],but not mTLR2/6-induced
same,P3C-induced NF-κβ activation,[3]; 5 to 30 min,reduced NF-κβ activation
same,P3C-induced degradation of IκBα,[3]; 15 and 30 min,prevented P3C-induced degradation of IκBα
same,P3C-induced MAPK activation,[3]; 30 min,blocked robust MAPK activation
